These results are taken from patent US10576102B2, “KOC1-derived peptide and vaccine including same” (ONCOTHERAPY SCIENCE, INC., priority 2014, dated 2020).

What all share (format): cell-based, human
One assay relates to peptide-pulsed C1R-A11. Put plainly: In vitro CTL induction, IFN-gamma ELISPOT assay (HLA-A*1101). Conditions: CTLs induced with peptide-pulsed DCs from HLA-A*1101-positive volunteers; day 21; vs peptide-pulsed C1R-A11, compared with unpulsed control. As to the method:
C1R (C1R-A11) that stably expresses HLA-A*1101 was used as a stimulator cell. A cDNA encoding the open-reading frame of HLA-A*1101 was amplified by PCR and cloned into an expression vector. C1R cells were transfected with the expression vector, and then selected using G418 (Invitrogen) for two weeks. The G418-selected cells were seeded into wells containing G418-added culture medium in a 96-well plate, and further cultured for 30 days. The exogenous HLA-A*1101 expression in C1R cells was verified by flow cytometric analysis.
(§1) Monocyte-derived dendritic cells (DCs) were used as the antigen-presenting cell to induce a cytotoxic T lymphocyte (CTL) response against peptides presented on human leukocyte antigens (HLAs). As described in the other sections, DCs were generated in vitro (Nakahara S et al., Cancer Res 2003, 63(14): 4112-8). Specifically, peripheral-blood mononuclear cells isolated from healthy volunteers (HLA-A*1101-positive) with the Ficoll-Paque plus solution (Pharmacia) were separated by attaching to plastic tissue culture dishes (Becton Dickinson) and concentrated as a monocyte fraction. The monocyte-concentrated population was cultured in the presence of 1000 IU/ml granulocyte macrophage colony-stimulating factor (R&D System) and 1000 IU/ml interleukin(IL)-4 (R&D System) in an AIM-V medium (Invitrogen) containing 2% heat-inactivated autologous serum (AS). After seven days of culturing, the cytokine-induced DCs were pulsed with 20 micro-g/ml each of the synthesized peptides in an AIM-V medium at 37 degrees C. for three hours in the presence of 3 micro-g/ml beta 2-microglobulin. The generated cells appeared to express on their cell surface DC-associated molecules such as CD80, CD83, CD86 and HLA class II (data not shown). Next, these peptide-pulsed DCs were inactivated, by X-ray irradiation (20 Gy), and mixed in a 1:20 ratio with autologous CD8^+ T cells obtained by positive selection using the CD8 Positive Isolation Kit (Dynal). These culture products were seeded in a 48-well plate (Corning). Each well was made to contain 1.5×10^4 peptide-pulsed DCs, 3×10^5 CD8^+ T cells and 10 ng/ml IL-7 (R&D System) in 0.5 ml of the AIM-V/2% AS medium. Three days later, these culture products were added with a final concentration of 20 IU/ml IL-2 (CHIRON). On day 7 and day 14, T cells were further stimulated with peptide-pulsed autologous DCs. The DCs were prepared every time by the same method as above. On day 21, after the third peptide stimulation, CTLs were examined against the peptide-pulsed C1R-A11 by a human interferon (IFN)-gamma enzyme-linked immunospot (ELISPOT) assay (Tanaka H et al., Br J Cancer 2001, 84(1): 94-9; Umano Y et al., Br J Cancer 2001, 84(8): 1052-7; Uchida N et al., Clin Cancer Res 2004, 10(24): 8577-86; Suda T et al., Cancer Sci 2006, 97(5): 411-9; Watanabe T et al., Cancer Sci 2005, 96(8): 498-506).
Specifically, peptide-pulsed C1R-A11 (1×10^4 cells/well) was prepared as the stimulator cell. The induced CTLs, i.e., CTL lines and CTL clones, were used as the responder cell. The IFN-gamma ELISPOT assay and IFN-gamma ELISA were performed according to the manufacturer's manual.

The subject of another assay is peptide-pulsed C1R-A03. As to the kind of experiment: In vitro CTL induction, IFN-gamma ELISPOT assay (HLA-A*0301). Conditions: CTLs induced with peptide-pulsed DCs from HLA-A*0301-positive volunteers; day 21; vs peptide-pulsed C1R-A03, compared with unpulsed control; listed as KOC1-A03-10-414. As to the method: C1R (C1R-A03) that stably expresses HLA-A*0301 was used as a stimulator cell. A cDNA encoding the open-reading frame of HLA-A*0301 was amplified by PCR and cloned into an expression vector. C1R cells were transfected with the expression vector, and then selected using G418 (Invitrogen) for two weeks. The G418-selected cells were seeded into wells containing G418-added culture medium in a 96-well plate, and further cultured for 30 days. The exogenous HLA-A*0301 expression in C1R cells was verified by flow cytometric analysis.
as §1, with “(HLA-A*0301-positive)” for “(HLA-A*1101-positive)”, “inactivated” for “inactivated,”, “On day 21, after the third peptide stimulation, CTLs were examined against the peptide-pulsed C1R-A11 by a human interferon (IFN)-gamma enzyme-linked immunospot (ELISPOT) assay (Tanaka H et al., Br J Cancer 2001, 84(1): 94-9; Umano Y et al., Br J Cancer 2001, 84(8): 1052-7; Uchida N et al., Clin Cancer Res 2004, 10(24): 8577-86; Suda T et al., Cancer Sci 2006, 97(5): 411-9; Watanabe T et al., Cancer Sci 2005, 96(8): 498-506).” left out

The test system of assay [1] is peptide-pulsed C1R-A01. Put plainly: In vitro CTL induction, IFN-gamma ELISPOT assay (HLA-A*0101). Conditions: CTLs induced with peptide-pulsed DCs from HLA-A*0101-positive volunteers; day 21; vs peptide-pulsed C1R-A01, compared with unpulsed control. As to the method:
C1R (C1R-A01) that stably expresses HLA-A*0101 was used as a stimulator cell. A cDNA encoding the open-reading frame of HLA-A*0101 was amplified by PCR and cloned into an expression vector. C1R cells were transfected with the expression vector, and then selected using G418 (Invitrogen) for two weeks. The G418-selected cells were seeded into wells containing G418-added culture medium in a 96-well plate, and further cultured for 30 days. The exogenous HLA-A*0101 expression in C1R cells was verified by flow cytometric analysis.
as §1, with “(HLA-A*0101-positive)” for “(HLA-A*1101-positive)”, “2-microglobulin.” for “2-microglobulin. The generated cells appeared to express on their cell surface DC-associated molecules such as CD80, CD83, CD86 and HLA class II (data not shown).”, “inactivated” for “inactivated,”, “CTL activities” for “CTLs”, “C1R-A01 cells” for “C1R-A11 by a human interferon (IFN)-gamma enzyme-linked immunospot (ELISPOT) assay”
(§2) Specifically, peptide-pulsed C1R-A01 (1×10^4 cells/well) was prepared as the stimulator cell. The induced CTLs, i.e., CTL lines and CTL clones, were used as the responder cell. The IFN-gamma ELISPOT assay and IFN-gamma ELISA were performed according to the manufacturer's manual.

Assay [2] relates to peptide-pulsed C1R-A01. Put plainly: IFN-gamma ELISA of CTL lines and CTL clone (HLA-A*0101). Particulars: CTL lines; target cells pulsed with the peptide vs not pulsed; C1R-A01. As to the method:
CTLs were propagated in culture using methods similar to those disclosed by Riddell et al. (Walter E A et al., N Engl J Med 1995, 333(16): 1038-44; Riddell S R et al., Nat Med 1996, 2(2): 216-23). The CTLs were co-cultured in a total of 25 ml AIM-V medium containing 5% AS and 40 ng/ml anti-CD3 antibody with two types of Mitomycin C-treated human B lymphoblastoid cell lines at 5×10^6 cells. One day after beginning of the culturing, 120 IU/ml IL-2 was added to the culture. On days 5, 8 and 11, a fresh AIM-V/5% AS medium containing 30 IU/ml IL-2 was added to the culture (Tanaka H et al., Br J Cancer 2001, 84(1): 94-9; Umano Y et al., Br J Cancer 2001, 84(8): 1052-7; Uchida N et al., Clin Cancer Res 2004, 10(24): 8577-86; Suda T et al., Cancer Sci 2006, 97(5): 411-9; Watanabe T et al., Cancer Sci 2005, 96(8): 498-506).
CTLs were seeded to make 1 or 10 cells/well in 96 round-bottomed microtiter plates (Nalge Nunc International). The CTLs were co-cultured with two types of Mitomycin C-treated human B lymphoblastoid cell lines at 1×10^4 cells in a total of 150 micro-1/well 5% AS-containing AIM-V medium with 30 ng/ml anti-CD3 antibody and 125 IU/ml IL-2. Ten days later, 50 micro-1 of IL-2 was added to the medium to reach a final IL-2 concentration of 125 IU/ml. On day 14, the CTL activity was tested, and the CTL clones were propagated using the same method as described above (Uchida N et al., Clin Cancer Res 2004, 10(24): 8577-86; Suda T et al., Cancer Sci 2006, 97(5): 411-9; Watanabe T et al., Cancer Sci 2005, 96(8): 498-506).
as §2

Entries after “also recorded” stand apart in the source; their conditions may differ.

Take “ALSVGAIIGK (a peptide derived from KOC1) [SEQ ID NO: 28]”: the “peptide-specific CTL activity (IFN-gamma production), ELISPOT” value in the assay on peptide-pulsed C1R-A11 is “potent IFN-gamma production”; in the assay with peptide-pulsed C1R-A03 it was “no specific IFN-gamma production; also recorded: specific IFN-gamma production was not observed”.
Regarding “ETAVVNVTY (a peptide derived from KOC1) [SEQ ID NO: 87]”, the “peptide-specific CTL activity (IFN-gamma production), ELISPOT” value in the assay on peptide-pulsed C1R-A01 [1] is recorded as “potent IFN-gamma production”. In addition, the “IFN-gamma production of CTL lines, ELISA” value in the assay with peptide-pulsed C1R-A01 [2] is on record as “potent IFN-gamma production”.
